The results in this text go back to patent US8168596B2, “Use of cycloartane compounds for treating arthritis” (NuLiv Holding Inc., priority 2008, dated 2012).

For assay [1], the system named is MMP-2. As to the kind of experiment: Zymography of MMP-2 from pre-treated SW1353 cells. It counts as cell-based, human. The settings on record: PMA-pre-treated SW1353; 0.1 μM, 24 h. Here is the method: (§1) At the beginning of the experiment, the cells were pre-treated with 100 ng/mL PMA or 10 ng/mL IL-1β for 24 hours. The cells were then treated with 0.1 μM Dexamethasone, various astragaloside compounds (0.1 μM) or extracts of Astragalus membranaceous (1 μg/mL) at indicated dosages for another 24 hours. For control sample, 0.1% DMSO was used as a negative control for these experiments. The conditioned culture mediums were then centrifuged, 2-fold concentrated and collected for assay of collagens or MMPs secreted into the culture medium.
(§2) The proteolytic activities of MMPs from SW1353 cells were measured essentially as described previously (Circ Res, 1999; 85:906-911). The cells were lysed in lysis buffer (1% Triton X-100, 50 mM Tris-Cl, pH 7.4, 180 mM NaCl, 1 mM EDTA). The samples were measured for their protein concentration using the bicinchoninic acid (BCA) protein assay kit as described. Samples of concentrated conditioned medium and cell lysates were mixed with non-reducing electrophoresis loading buffer and subjected to electrophoresis under non-reducing conditions. The electrophoresis was carried out on a 10% SDS-PAGE co-polymerized with 2 mg/mL gelatin or casein (Sigma, St. Louis, Mo. USA). For zymographic analysis of pro-MMP-2 and activated MMP-2, the total 20 μg of culture medium were used for electrophoresis. Following electrophoresis, renaturation of the proteins was achieved by incubating the gels twice in 25 g/L Triton X-100 at room temperature for 10 min. Subsequently the gels were incubated in 50 mM Tris-HCl, pH 7.5 containing 0.2 M NaCl, 0.02% Brij35 and 10 mM CaCl2 at 37° C. for 18 hours. After the gels were stained with Coomassie Brilliant Blue R-250 and destained, zones of proteolytic activities became visible as transparent bands in the stained gel. In order to obtain higher sensitivity, the gels were further destained in a solution of 1% Triton X-100 (1 to 2 hours). This procedure increased the signal-to-noise ratio, allowing the visualization of faint gelatinase bands at 92 kDa, 125 kDa and greater than 200 kDa. Zymograms were read using a Molecular Dynamics (Sunnyvale, Calif., USA) computing laser densitometer with Image Quant software.

For assay [2], the system named is MMP-13. Kind of assay: Western blot of MMP-13 in PMA- or IL-1β-pre-treated SW1353 cells (Example 6). The settings on record: 0.1 μM, 48 h. It is filed as cell-based, human. How it is done:
(§3) The cells were then plated on 6-cm dishes at a density of 1×10^6 cells/dish for 24 hours prior to any treatment. At the beginning of the experiment, the cells were pre-treated with 100 ng/mL PMA or 10 ng/mL IL-1β for 24 hours. The cells were then treated 0.1 μM Dexamethasone with, various astragaloside compounds (0.1 μM) or extracts of Astragalus membranaceous (1 μg/mL) at indicated dosages for another 48 hours. For control sample, 0.1% DMSO was used as a negative control for these experiments. The conditioned culture mediums were then centrifuged, 2-fold concentrated and collected for assay of collagens or MMPs secreted into the culture medium.
Western blotting analysis was carried out on both cultured medium and cell lysates, as follows. The cells were washed and lysed in 0.2 mL of lysis buffer (1% NP-40, 50 mM Tris-HCl, pH 7.4, 180 mM NaCl, 1 mM EDTA, 1 mM PMSF, 1 mM NaF, 10 mM Na3VO4) for 30 min at 4° C. After centrifuging at 17500 g for 15 min, the supernatants of cell lysate were also collected. Protein concentration of the samples were measured using the bicinchoninic acid (BCA) protein assay kit according to the manufacturer's protocol (Pierce, Rockford, Ill., USA). Equal amount of protein samples of concentrated conditioned medium (100 μg) or cell lysate supernatants (50 μg) were mixed with an appropriate volume of 4×SDS sampling buffer and separated by 8% SDS-PAGE gel. The protein bands separated in the SDS-PAGE gel were blotted onto a polyvinylidene fluoride (PVDF) membrane. The blotted PVDF membrane was washed twice and blocked in freshly prepared Tris-buffered saline (TBS) containing 0.1% Tween-20 and 7% skim milk (TBST) for 2 hours at room temperature. […] Horseradish peroxidase-conjugated anti-goat antibody was used as secondary antibody. Signals were visualized by an enhanced chemiluminescence kit (Clonetech, Palo Alto, Calif., USA) followed by exposure to X-ray films.
Background: A western blot detects proteins with antibodies after separation by electrophoresis.

Assay [3] relates to MMP-1. Kind of assay: Western blot of MMP-1 in PMA- or IL-1β-pre-treated SW1353 cells (Example 6). The settings on record: 48 h. It counts as cell-based, human. How it is done:
as §3
Western blotting analysis was carried out on both cultured medium and cell lysates, as follows. The cells were washed and lysed in 0.2 mL of lysis buffer (1% NP-40, 50 mM Tris-HCl, pH 7.4, 180 mM NaCl, 1 mM EDTA, 1 mM PMSF, 1 mM NaF, 10 mM Na3VO4) for 30 min at 4° C. After centrifuging at 17500 g for 15 min, the supernatants of cell lysate were also collected. Protein concentration of the samples were measured using the bicinchoninic acid (BCA) protein assay kit according to the manufacturer's protocol (Pierce, Rockford, Ill., USA). Equal amount of protein samples of concentrated conditioned medium (100 μg) or cell lysate supernatants (50 μg) were mixed with an appropriate volume of 4×SDS sampling buffer and separated by 8% SDS-PAGE gel. The protein bands separated in the SDS-PAGE gel were blotted onto a polyvinylidene fluoride (PVDF) membrane. The blotted PVDF membrane was washed twice and blocked in freshly prepared Tris-buffered saline (TBS) containing 0.1% Tween-20 and 7% skim milk (TBST) for 2 hours at room temperature. The PVDF membrane was then incubated with either antibodies against collagen I and III or the housekeeping protein α-tubulin (Santa Cruz Biotechnology, Santa Cruz, Calif.) for 18 hours at 4° C. Horseradish peroxidase-conjugated anti-goat antibody was used as secondary antibody. Signals were visualized by an enhanced chemiluminescence kit (Clonetech, Palo Alto, Calif., USA) followed by exposure to X-ray films.

Assay [4] deals with HCH cells. As to the kind of experiment: Proline uptake assay. It is filed as cell-based, human. Conditions: astragalosides 0.1 μM, 24 h, Ctrl 1.00. How it is done: The proline uptake assay was carried out as described below, generally in accordance with the method disclosed in Biochim Biophys Acta. 1104:283-292, 1992, the contents of which are incorporated by reference. Briefly, HCH cells were seeded into a 24-well plate at a density of 3×10^4 cells per well and cultured for 24 hours. The cells were then treated in the absence (solvent control) or presence of the astragalosides (0.1 μM) or Astragalus membranaceous extracts (1.0 μg/mL) for another 24 hours. The treated cells were then washed once with PBS and incubated in amino acid free medium (AAFM) for another 30 min. The treated cells were then replaced with fresh AAFM containing 50 μg/mL of ascorbate and total of 0.5 mM of L-proline containing 1 μCi [^3H] Proline (American Radiolabelled Chemicals Inc, ARC, St. Louis, Mo., USA). At designated time intervals, the cells were washed with AAFM containing cold proline and then lysed in 200 μL of 2% SDS. Cell lysates were centrifuged at 15000 g for 15 min. Intracellular proline uptaken by the cells was determined by transferring 10 μL of the cell lysate to filter-bottomed UniFilter plates (Perkim-Elmer) and counting. The samples were measured for their protein concentrations using the BCA protein assay kit as described above. The amount of proline accumulated in the cells was calculated and normalized to protein concentration. And cellular uptake rate was expressed as nmole of L-proline per minute per […] of cell protein (nmole/min/μg).

In assay [5] the test system is MMP-1. As to the kind of experiment: Zymography of MMP-1 from pre-treated SW1353 cells. It is filed as cell-based, human. Conditions: PMA-pre-treated SW1353; 0.1 μM, 24 h. How it is done: as §1, §2
For assay [6], the system named is HCH cells. Kind of assay: Glucosamine uptake assay. It counts as cell-based, human. The settings on record: astragalosides 0.1 μM, 24 h, Ctrl 1.00. Here is the method: The HCHs were cultured as described above in Example 7. For the glucosamine uptake test, HCH cells were seeded into 24-well plate at a density of 3×10^4 cells per well and cultured for 24 hours. The cells were then treated in the absence (solvent control) or presence of the astragalosides (0.1 μM) or Astragalus membranaceous extracts (1.0 μg/mL) for another 24 hours. The treated cells were then washed twice with PBS and incubated in glucose and serum free medium (GSFM). After 2 hours, the cells were replaced with fresh GSFM containing 0.2 μCi of [^14C]-Glucosamine (American Radiolabelled Chemicals Inc, ARC, St. Louis, Mo., USA). At the designated time interval, the cells were washed twice with GSFM containing cold glucosamine and then lysed in 200 μL of 2% SDS. Cell lysates were centrifuged at 15000 g for 15 min. Intracellular uptaken glucosamine was determined by transferring 10 μL of the cell lysate to filter-bottomed UniFilter plates (Perkim-Elmer) and counting. The samples were measured for their protein concentration using the BCA protein assay kit as described above. The amount of glucosamine accumulated in the cells was calculated and normalized to protein concentration and uptake rate was expressed as counts per minute per microgram of cell protein (cpm/min/μg).

Assay [7] concerns MMP-9. As to the kind of experiment: Zymography of MMP-9 from pre-treated SW1353 cells. It is filed as cell-based, human. Conditions: PMA-pre-treated SW1353; 0.1 μM, 24 h. How it is done: as §1, §2
The subject of assay [8] is MMP-13. Kind of assay: Western blot of MMP-13 in pre-treated human chondrocytes (HCHs). It is filed as cell-based. The settings on record: 0.1 μM, 48 h.
The test system of assay [9] is MMP-1. As to the kind of experiment: Western blot of MMP-1 in pre-treated human chondrocytes (HCHs). Conditions: 0.1 μM, 48 h. It counts as cell-based.
Assay [10] relates to Type II Collagen. Kind of assay: Western blot of Type II Collagen in pre-treated human chondrocytes (HCHs). It counts as cell-based. Conditions: PMA-pre-treated HCH culture medium; 0.1 μM, 48 h.
For assay [11], the system named is MMP1. Conditions: UO126 10 μM, SP600125 25 μM, SB203580 5 μM, 24 h, then PMA 100 ng/mL 24 h.
Experimental: The SW1353 cells were grown at 37° C. in a humidified incubator under 5% CO2 and 95% air in the culture medium as described above. The SW1353 cells were then sub-cultured into 6-well culture plates with serum free medium at an average amount of 2×10^5 cells per well and incubated for 24 hours. Then, the SW1353 cells were treated with 10 μM UO126 (MEK1-specific inhibitor), 25 μM, SP600125 (JNK-specific inhibitor), 5 μM SB203580 (p38-specific inhibitor), or 20 μM LY294002 (PI3K kinase inhibitor), and incubated for another 24 hours. Later, the SW1353 cells were treated with 100 ng/mL PMA and again incubated for 24 hours. Finally, the SW1353 cells were under cell extraction and the cell lysate was used for further luciferase analysis and western blotting analysis.
The SW1353 cells were grown at 37° C. in a humidified incubator under 5% CO2 and 95% air in the culture medium as described above. The SW1353 cells were then sub-cultured into 24-well culture plates and cultured for 24 hours. […] Following cell extraction, the cell lysate was centrifuged at 4° C., 20000 g for 30 minutes and then transferred to a 1.5 ml-microcentrifuge tube. Then, 100 μl buffer A (0.1 mM luciferin) and 350 μl buffer B (1 M MgSO4, 1 M Hepes (pH 7.8), 0.1 M ATP) were added into the microcentrifuge tube. The luciferase activity of final mixture was measured by a luminometer for 30 seconds.
The mark [12] stands for this setting: PMA-pre-treated SW1353 cell extract.
[13] abbreviates: PMA-pre-treated SW1353 culture medium.
The mark [14] stands for this setting: PMA-pre-treated SW1353 cell extract, 0.1 μM.
[15] abbreviates: PMA-pre-treated SW1353 culture medium, 0.1 μM.
The mark [16] stands for this setting: PMA-pre-treated HCH cell extract.
Setting [17] is: PMA-pre-treated HCH culture medium.

The structures appear in SMILES notation.

`CC(=O)O[C@H]1[C@H](O[C@H]2CC[C@]34C[C@]35CC[C@]3(C)[C@@H]([C@@]6(C)CC[C@@H](C(C)(C)O)O6)[C@@H](O)C[C@@]3(C)[C@@H]5C[C@H](O[C@@H]3O[C@H](CO)[C@@H](O)[C@H](O)[C@H]3O)[C@H]4C2(C)C)OC[C@@H](OC(C)=O)[C@@H]1O` [IsoAS1, Isoastragaloside I]: the “MMP-2, Zymography, relative to Ctrl 1.00” value in [1] amounted to 1.01. The “MMP-13, Western blot, relative to Ctrl 1.00” value in assay [2] (setting [12]) came to 1.19; in assay [2] (setting [13]), 1.03. The “MMP-1, Western blot, relative to Ctrl 1.00” value in assay [3] (setting [14]) is given as 0.67; in assay [3] (setting [15]) it was 0.77. In [4], the “proline uptake, Relative fold” value worked out at 2.82 fold. Besides, in [5], the “MMP-1, Zymography, relative to Ctrl 1.00” value stood at 0.66. Besides, the “glucosamine uptake, Relative fold” value in assay [6] was found to be 1.16 fold. Moreover, the “MMP-9, Zymography, relative to Ctrl 1.00” value in assay [7] amounted to 0.85.
As for `CC(C)(O)C1CC[C@](C)(C2[C@@H](O)C[C@@]3(C)C4C[C@H](OC5OC(CO)C(O)C(O)C5O)C5C(C)(C)[C@@H](O)CCC56CC46CC[C@]23C)O1` (stereo partly drawn) [AA, cycloastragenol 6-O-β-D-glucopyranose], the “MMP-13, Western blot, relative to Ctrl 1.00” value in assay [2] (IL-1β-pre-treated SW1353 culture medium) was 0.93; in assay [2] (setting [13]) it was 0.84; in assay [8] (setting [16]), 0.44; in assay [8] (setting [17]), 0.49. Further, the “MMP-1, Western blot, relative to Ctrl 1.00” value in assay [3] (IL-1β-pre-treated SW1353 cell extract, compounds 0.1 μM) is reported as 0.74; in assay [3] (IL-1β-pre-treated SW1353 culture medium, 0.1 μM) it was 0.76; in [3] (setting [15]), 0.52; in [9] (setting [16]), 0.44; in [9] (setting [17]), 0.44. Further, the “proline uptake, Relative fold” value in assay [4] is reported as 2.80 fold. Besides, the “glucosamine uptake, Relative fold” value in assay [6] was 1.19 fold. Moreover, the “Type II Collagen, Western blot, relative to Ctrl 1.00” value in [10] was 1.42.
Consider `CC(=O)O[C@@H]1[C@@H](O)[C@H](O[C@H]2CC[C@]34C[C@]35CC[C@]3(C)[C@@H]([C@@]6(C)CC[C@@H](C(C)(C)O)O6)[C@@H](O)C[C@@]3(C)[C@@H]5C[C@H](O[C@@H]3O[C@H](CO)[C@@H](O)[C@H](O)[C@H]3O)[C@H]4C2(C)C)OC[C@H]1O` [IsoAS2, Isoastragaloside II], for which the “MMP-2, Zymography, relative to Ctrl 1.00” value in [1] turned out to be 1.04. Further, the figures for the “MMP-13, Western blot, relative to Ctrl 1.00” value in assay [2] (setting [12]) and in assay [2] (setting [13]) were 0.60 and 0.80, respectively. The “MMP-1, Western blot, relative to Ctrl 1.00” value came to 1.28 in assay [3] (setting [14]) and 0.77 in [3] (setting [15]). In addition, in assay [4], the “proline uptake, Relative fold” value was found to be 1.61 fold. In assay [5], the “MMP-1, Zymography, relative to Ctrl 1.00” value is recorded as 0.95. In [6], the “glucosamine uptake, Relative fold” value was determined as 1.07 fold. Moreover, the “MMP-9, Zymography, relative to Ctrl 1.00” value in assay [7] is reported as 0.95.
`C[S+]([O-])c1ccc(-c2nc(-c3ccncc3)c(-c3ccc(F)cc3)[nH]2)cc1` (stereo not shown) [SB203580]: the “luciferase activity (control group 1 fold, PMA-only group 8 fold)” value in assay [11] was 2 fold.
